Assay results as given in paper PMC4724290 (Synapse (New York, N.Y.), 2015).
Counter-ions that a name gives are not always drawn.

Columns and labels:
[1] = target: striatal dopamine transporters (DAT) (Mus musculus, UniProt Q61327); assay: In vivo DAT occupancy: inhibition of [^125I]RTI-121 specific binding in striatum; set-up: species or system CD-1 mice; conditions: 10.0 μmol/kg i.p.
CD-1 mice = assay: Locomotor activity: basal and; assay type: in vivo
σ1 receptors [2] = target: T1, σ1 receptors (Mus musculus, UniProt O55242); assay: In vitro σ1 receptor binding, [^3H]; set-up: species or system CD-1 mouse; conditions: for Sigma1 nH: 3.0 nM [^3H](+)pentazocine, 37 °C, 180 min
T1 sequence (O55242 whole entry): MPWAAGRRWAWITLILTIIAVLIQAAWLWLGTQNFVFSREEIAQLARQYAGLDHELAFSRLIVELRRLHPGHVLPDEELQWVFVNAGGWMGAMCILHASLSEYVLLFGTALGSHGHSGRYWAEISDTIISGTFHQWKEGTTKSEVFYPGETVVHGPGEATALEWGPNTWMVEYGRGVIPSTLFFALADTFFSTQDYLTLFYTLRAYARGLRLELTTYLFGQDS

σ2 receptors [3] = target: T2, σ2 receptors (Mus musculus, UniProt Q8VD00); assay: In vitro σ2 receptor binding, [^3H]DTG/; set-up: species or system CD-1 mouse
T2 sequence (Q8VD00 1-176): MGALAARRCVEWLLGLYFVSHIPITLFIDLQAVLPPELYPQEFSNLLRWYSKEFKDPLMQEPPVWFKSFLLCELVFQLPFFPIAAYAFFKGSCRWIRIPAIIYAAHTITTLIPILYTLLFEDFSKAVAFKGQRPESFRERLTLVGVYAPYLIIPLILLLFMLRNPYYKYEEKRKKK

σ1 receptors [4] = target: T1, σ1 receptors; conditions: ref Lever et al., 2014b, cited from earlier work
DAT = conditions: read-out: Ki for the DAT (apparent affinity); ref Garcés-Ramírez et al., 2011; cited from earlier work
Swiss Webster mice = conditions: doses as low as 0.1 mg/kg (0.29 μmol/kg); ref Matsumoto et al., 2001a; cited from earlier work
σ2 receptors [5] = conditions: read-out: Ki for σ2 receptors; ref Kovács and Larson (1995); cited from earlier work
σ1 receptors [6] = conditions: read-out: σ1 Ki; ref Lever et al., 2015; cited from earlier work

striatal dopamine transporters (DAT), sequence (Q61327 whole entry): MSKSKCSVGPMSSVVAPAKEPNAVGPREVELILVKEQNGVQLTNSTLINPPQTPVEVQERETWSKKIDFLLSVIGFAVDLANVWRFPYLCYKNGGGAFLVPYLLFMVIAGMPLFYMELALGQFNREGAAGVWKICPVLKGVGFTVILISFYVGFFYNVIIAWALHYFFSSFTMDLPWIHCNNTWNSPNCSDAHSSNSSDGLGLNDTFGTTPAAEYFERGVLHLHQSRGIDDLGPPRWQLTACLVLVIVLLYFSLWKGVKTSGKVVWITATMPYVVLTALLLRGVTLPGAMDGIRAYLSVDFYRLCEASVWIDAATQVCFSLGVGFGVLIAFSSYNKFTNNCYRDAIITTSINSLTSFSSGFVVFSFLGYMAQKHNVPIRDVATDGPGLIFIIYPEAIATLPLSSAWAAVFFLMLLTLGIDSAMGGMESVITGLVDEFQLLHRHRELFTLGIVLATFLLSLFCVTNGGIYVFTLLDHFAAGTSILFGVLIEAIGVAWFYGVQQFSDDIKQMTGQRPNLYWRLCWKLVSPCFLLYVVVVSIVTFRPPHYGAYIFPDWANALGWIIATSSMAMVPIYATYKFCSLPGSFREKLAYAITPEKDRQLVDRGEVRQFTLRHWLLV

## CN1CCN(CCc2ccc(Cl)c(Cl)c2)CC1 [BD1063, 1-[2-(3,4-dichlorophenyl)ethyl]-4-methylpiperazine]
[1]
  Inhibition of striatal [^125I]RTI-121 specific binding: did not inhibit
CD-1 mice; 3.16 μmol/kg i.p., not statistically significant
  Increase of (−)-cocaine-induced hyperactivity: 17%
CD-1 mice; 31.6 μmol/kg i.p., not statistically significant
  Decrease of (−)-cocaine-induced hyperactivity: 19%
CD-1 mice; i.p., E-IA-DM-PE-PIPZE up to 3.16 μmol/kg, BD1063 3.16 and 31.6 μmol/kg, 60 min
  Effect on basal locomotor activity: did not significantly affect basal activity
σ1 receptors [2]
  Affinity for σ1 receptors relative to (−)-cocaine (higher): ~200 fold
  Affinity for σ1 receptors relative to PD144418 (lower): 30 fold
  IC50: 9.68 ± 1 nM
  Ki: 5.98 ± 0.62 nM
  Sigma1 nH: 1.17 ± 0.08
σ1 receptors [2]; CD-1 mouse whole brain membranes
  Selectivity Ki Ratio σ2/σ1: 127
σ2 receptors [3]
  IC50: 843 ± 104 nM
  Ki: 762 ± 94 nM
σ2 receptors [3]; 3.0 nM [^3H]DTG/500 nM (+)pentazocine, 25 °C, 60 min
  Sigma2 nH: 0.96 ± 0.13
σ1 receptors [4]; doses ≥ 3.16 μmol/kg, in the absence of (−)-cocaine
  Occupancy of cerebral σ1 receptors: ≥ 89%
σ1 receptors [4]; same protocol
  ED50 for σ1 occupancy, brain: 0.62 µmol/kg
  ED50 for σ1 occupancy, heart: 0.14 µmol/kg
  ED50 for σ1 occupancy, lung: 0.20 µmol/kg
  ED50 for σ1 occupancy, spleen: 1.47 µmol/kg
DAT
  Ki: 8000 nM
Swiss Webster mice
  Protection from (−)-cocaine-induced convulsions: protect

## COc1ccc2c(c1)[C@]13CCCC[C@@H]1[C@H](C2)N(C)CC3 [Dextromethorphan, dextromethorphan hydrobromide]
σ1 receptors [2]
  IC50: 97.5 ± 6.9 nM
  Ki: 63.1 ± 4.5 nM
  Sigma1 nH: 0.88 ± 0.07
σ2 receptors [3]
  IC50: 30000 ± 2820 nM
  Ki: 26800 ± 2530 nM
σ2 receptors [5]
  Ki: 1740 nM
σ1 receptors [6]
  Ki: 63 nM
